Assay results taken from patent US20210322509A1, “Methods for Reducing Perinatal Morbidity and / or Mortality” (CHU SAINTE-JUSTINE, priority 2016, published 2021).
Non-standard residues stand in square brackets, D forms with d. Residues, ends and D or L forms follow the SMILES beside them. ξ: configuration not given here. dThr(3ξ) = CC(O)[C@@H](N)C(=O)O

Key:
[1] = test system: pups from IL-1β-treated dams; test: Behavioral test (spontaneous open field activity); format: in vivo, mice; conditions: PT15
Method: Behavioral test (Spontaneous openfield activity). Each animal (PND15 and PND28) was gently placed in the center of the openfield, allowed to freely explore undisturbed for 10 min, after which the animal was removed, the arena cleaned with 70% ethanol and dried prior to testing the next animal. Locomotor activity was indexed as the total distance travelled (cm). The evaluator was blinded to the groups. All movements were monitored and quantified using Smart software.

[2] = test system: Il1a, Il1b, Il6 and Tnfa mRNA in fetal head; test: LPS-induced cytokine gene expression in fetal brain (qPCR); format: in vivo, C57Bl/6 mice
Method: FIGS. 10A to 10D show the induction of pro-inflammatory cytokines in fetal brain after maternal LPS administration is suppressed by compound 2 (cmpd2) in mice. C57Bl/6 mice were mated to males of the same genotype, administered LPS with or without compound 2 and fetal head were recovered. Relative expression of Il1a (FIG. 10A), IL6 (FIG. 10B), TNF (FIG. 10C) and IL1B (FIG. 10D) mRNAs were determined in each tissue by qPCR and normalized to Actb. Data are shown as mean±SEM relative gene expression in tissue pooled from two implantation sites with n=6 dams/group. The effect of LPS and compound 2 was analyzed by Kruskal-Wallis and Mann-Whitney U-test. #* indicates significant differences between groups, p<0.05.
Animal and treatments. To analyze effects of compound 2 on LPS-induced cytokine expression in the fetal brain after inflammatory stimulus mimicking infection in utero, pregnant female C57Bl/6 female mice (mated with C57Bl/6 males) were injected with 0.5 μg lipopolysaccharide (LPS; Salmonella typhimurium; Sigma-Aldrich®, St. Louis, Mo., USA) in 200 μl PBS i.p., or PBS control, at 1100 h on gd 16.5. Mice were immediately administered compound 2 (1 mg/kg in PBS) or vehicle control (PBS+0.1% BSA) within 5 mins of LPS injection on gd 16.5, then killed 4 h later. Brain tissues were recovered by severing the fetal head from 2 fetuses from each of […] per treatment group.
Expression of inflammatory markers. Messenger RNA (mRNA) was extracted by homogenizing tissues using ceramic beads (Mo Bio) in Trizol® (Ambion® RNA, Carlsbad Calif.). […] Primer pairs specific for published cDNA sequences were designed using Primer Express® software (Applied Biosystems®, Foster City, Calif.) to quantify Il1a, Il1b, Il6 and Tnfa mRNA. […] Data were normalized to β-actin mRNA expression and expressed as ΔΔCT using the formula mRNA level=[…]. […] Data were tested for normality using a Shapiro-Wilk test then analyzed by Kruskal-Wallis and Mann-Whitney U-test since data were not normally distributed. […]

Structure (SMILES): CC(C)C[C@@H](NC(=O)[C@@H](CCC(=O)O)NC(=O)[C@H](NC(=O)[C@H](NC(=O)[C@@H](Cc1ccc(O)cc1)NC(=O)[C@H](N)CCCNC(=N)N)C(C)O)C(C)C)C(=O)N[C@H](C)C(N)=O (stereo partly drawn) [compound 1] (H-[dR][dY][dThr(3ξ)][dV][dE][dL][dA]-NH2)
- behavior/locomotion activity (distance travelled, open field) [1]: normalization of the behavior/locomotion activity

Structure (SMILES): CC(C)C[C@@H](NC(=O)[C@@H](CCC(=O)O)NC(=O)[C@H](NC(=O)[C@H](NC(=O)[C@@H](Cc1ccc(O)cc1)NC(=O)[C@H](N)CCCNC(=N)N)C(C)O)C(C)C)C(=O)N[C@H](C)C(=O)O (stereo partly drawn) [compound 2] (H-[dR][dY][dThr(3ξ)][dV][dE][dL][dA]-OH)
- expression of Il1a, Il1b and Il6 in fetal head relative to PBS control ([2]; LPS + compound 2): no change
- expression of Il1a, Il1b and Il6 in fetal head relative to PBS control ([2]; compound 2 alone (no LPS)): did not significantly alter
- expression of Il1a, IL6, TNF and IL1B in fetal head, reduction relative to LPS alone ([2]; dams given LPS 0.5 μg i.p. gd 16.5 + compound 2 1 mg/kg, 4 h later): 40-60%
